pIC50: −log10 of the molar value.
Test system: HCV replicon (5-2 Luc replicon-comprising cells)
Assay: HCV replicon luciferase emission assay
Assay type: cell-based
Details: Hepatitis C virus; 5-2 Luc replicon cells, 24 hours with compound, 50% reduction in luciferase emission
From the text: The inhibitory activity of certain exemplary compounds of the invention was confirmed using an HCV replicon assay. The HCV replicon can include such features as the HCV 5′ untranslated region including the HCV IRES, the HCV 3′ untranslated region, selected HCV genes encoding HCV polypeptides, selectable markers, and a reporter gene such as luciferase, GFP, etc. In the assay, actively dividing 5-2 Luc replicon-comprising cells (obtained from Rolf Bartenschlager; see Lohmann et al., 1999, Science 285:110-113) were seeded at a density of between about 5,000 and 7,500 cells/well onto 96 well plates (about 90 μl of cells per well) and incubated at 37° C. and 5% CO2 for 24 hours. Then, the test compound (in a volume of about 10 μl) was added to the wells at various concentrations and the cells were incubated for an additional 24 hours before luciferase assay. The media was aspirated from each well and Bright-Glo (Promega, Madison, Wis.) luciferase assay reagents were added to each well according to the manufacturer's instructions. Briefly, the Bright-Glo reagent was diluted 1:1 with PBS and 100 μl of diluted reagent was added to each well. After 5 min of incubation at room temperature, luciferin emission was quantified with a luminometer. In this assay, the amount of test compound that yielded a 50% reduction in luciferase emission (IC50) was determined.

SMILES: O=C1c2ccccc2-c2onc3ccc(N4CC4)c1c23 [Compound 2]
- pIC50: 6.10
